Reference: article PMC9265830, “Purification and Identification of a Novel Angiotensin Converting Enzyme Inhibitory Peptide from the Enzymatic Hydrolysate of Lepidotrigla microptera” (Foods, 2022)
“Also recorded” adds a separate entry of the source. Where no end group is shown, it is not given here.

What was measured:
pepsin, pancreatin = test: Simulated gastrointestinal digestion; type: in vitro ADME; conditions: 0.2 mg/mL; pepsin 0.05% pH 2.0 2 h 37 °C, then pancreatin 0.05% pH 7.5 2 h 37 °C; read-out ACE inhibition
Protocol: (§1) ACE-inhibitory activity was determined following the method of Cushman. The reaction system comprised a sample (10 μL), HHL (2.5 mM, 30 μL), and ACE solution (0.1 U/mL, 20 μL) in sodium borate buffer (pH 8.3, 0.3 M NaCl). The mixture of HHL and the sample was pre-incubated for 15 min at 37 °C before adding the ACE solution. The reaction was carried out for 40 min at 37 °C in a water bath and terminated by adding HCl (1 mol/L, 60 μL). Then 20 μL of the reaction mixture was injected into an HPLC system (Shimadzu, Japan) equipped with a C-18 column (150 × 4.6 mm, 5 μm). In order to detect the concentration of HA (hippuric acid), isocratic elution was performed for 25 min in 80% mobile phase A (0.05% Trifluoroacetic acid in H2O) and 20% mobile phase B (Acetonitrile) at a 0.8 mL/min flow rate, and the detection wavelength was 280 nm. The ACE-inhibitory activity was calculated according to the formula:ACE-inhibitory activity (%) = (A1 − A2)/A1(1) where A1 and A2 equal the peak areas of blank control and the sample, respectively.
Simulated gastrointestinal digestion of ACE-inhibitory peptides was conducted following the method of Lai et al. with slight modifications. […]

[1] = Thermal stability of ACE inhibitory activity; type: physicochemical
Protocol: as §1
The sample (0.2 mg/mL) was treated at various temperatures (20, 40, 60, 80, and 100 °C) for 1 h. After cooling the solution to indoor temperature (25 °C), the ACE inhibition activity was detected.

ACE [2] = biological target: T1, ACE (Homo sapiens, UniProt P12821); test: Inhibitory kinetics study (Lineweaver–Burk plots); type: biochemical; conditions: for Vmax of the enzyme reaction: HHL 1-5 mM, Vmax without peptide 20 mM/min
T1 sequence (P12821 30-1306, species assumed): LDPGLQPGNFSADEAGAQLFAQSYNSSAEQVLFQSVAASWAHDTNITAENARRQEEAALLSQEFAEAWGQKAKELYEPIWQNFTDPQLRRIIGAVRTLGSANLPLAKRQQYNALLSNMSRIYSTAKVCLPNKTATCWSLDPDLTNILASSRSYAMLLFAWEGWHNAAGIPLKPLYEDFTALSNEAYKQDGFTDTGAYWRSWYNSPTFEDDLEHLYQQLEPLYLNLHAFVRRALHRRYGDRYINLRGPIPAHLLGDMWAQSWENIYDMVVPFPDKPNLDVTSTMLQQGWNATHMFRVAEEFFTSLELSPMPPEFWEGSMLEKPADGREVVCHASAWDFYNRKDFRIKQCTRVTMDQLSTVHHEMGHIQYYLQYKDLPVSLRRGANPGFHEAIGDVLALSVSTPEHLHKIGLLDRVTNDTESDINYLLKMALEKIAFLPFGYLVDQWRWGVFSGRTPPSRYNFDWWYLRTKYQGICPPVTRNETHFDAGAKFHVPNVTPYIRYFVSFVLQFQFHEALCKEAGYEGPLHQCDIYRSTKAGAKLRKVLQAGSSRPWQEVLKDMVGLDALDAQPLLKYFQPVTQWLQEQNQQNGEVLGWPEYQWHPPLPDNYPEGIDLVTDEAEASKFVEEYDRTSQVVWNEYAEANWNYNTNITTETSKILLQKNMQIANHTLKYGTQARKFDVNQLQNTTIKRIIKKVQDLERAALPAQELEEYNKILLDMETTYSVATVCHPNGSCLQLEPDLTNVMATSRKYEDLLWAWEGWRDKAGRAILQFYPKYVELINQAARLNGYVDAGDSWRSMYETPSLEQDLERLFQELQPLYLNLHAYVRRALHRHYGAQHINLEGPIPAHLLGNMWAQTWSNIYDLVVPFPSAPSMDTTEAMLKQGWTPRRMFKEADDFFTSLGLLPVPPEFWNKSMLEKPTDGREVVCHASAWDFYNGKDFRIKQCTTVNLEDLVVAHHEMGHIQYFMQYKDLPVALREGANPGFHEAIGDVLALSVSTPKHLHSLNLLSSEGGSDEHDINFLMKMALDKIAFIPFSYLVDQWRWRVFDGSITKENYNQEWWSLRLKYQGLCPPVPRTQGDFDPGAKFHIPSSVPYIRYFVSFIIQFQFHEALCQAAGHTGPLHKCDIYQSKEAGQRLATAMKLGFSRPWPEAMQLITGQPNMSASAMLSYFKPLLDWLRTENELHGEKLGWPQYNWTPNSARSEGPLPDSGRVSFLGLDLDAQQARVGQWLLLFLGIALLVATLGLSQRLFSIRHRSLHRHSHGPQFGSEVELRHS
Protocol: Different concentrations of ACE-inhibitory peptide (0, 60, and 120 μM) were mixed with various concentrations of HHL solution (1, 2, 3, 4 and 5 mM) and pre-incubated for 5 min at 37 °C. Then the reaction was initiated by adding 80 µL of ACE and terminated by adding 20 µL of 1 mol/L HCl. The Lineweaver–Burk plot of the reciprocal of the HHL concentration (1/[s]) and the HA production rate (1/[v]) were used to analyze the inhibitory kinetics of peptide.

[3] = pH stability of ACE inhibitory activity; type: physicochemical; conditions: 0.2 mg/mL, 37 °C, 2 h, pH 3 to 11 (method: 2, 4, 6, 8, 10), readjusted to pH 7.0; read-out ACE inhibition
Protocol: as §1
The ACE-inhibitory peptide solution (0.2 mg/mL) was incubated at different pH levels (2, 4, 6, 8, and 10) at 37 °C for 2 h, and the pH value was adjusted by adding HCl (1 mol/L) and NaOH (1 mol/L). Before the ACE inhibition rate was determined, the pH value was adjusted to 7.0.

ACE [4] = biological target: T1, ACE; test: ACE-inhibitory activity (HHL substrate, hippuric acid by HPLC); type: biochemical; conditions: ultrafiltration, Sephadex G-15 and prep-HPLC fractions; chemically synthesized peptides; read-out: IC50 (ACE inhibition) of fractions and synthesized peptides (converted)
Protocol: as §1

Molecule: CC(C)C[C@H](NC(=O)CNC(=O)[C@H](C)NC(=O)[C@@H](NC(=O)[C@H](CC(C)C)NC(=O)[C@@H](N)CC(=O)O)[C@@H](C)O)C(=O)N[C@@H](CC(C)C)C(=O)N[C@@H](CCC(=O)O)C(=O)O [DLTAGLLE, Phe-Leu-Thr-Ala-Gly-Leu-Leu-Asp]
- Relative ACE inhibition activity before and after digestion (pepsin, pancreatin): retained after gastrointestinal digestion; also recorded: essentially unchanged
- ACE-inhibitory activity after heat treatment ([1]; 0.2 mg/mL, 1 h, temperature above 60 °C (up to 100 °C), read-out ACE inhibition): slightly decreased
- ACE-inhibitory rate after heat treatment ([1]; 0.2 mg/mL, 1 h, temperature range 20 to 60 °C, read-out ACE inhibition): remained relatively stable
- Stability of ACE-inhibitory activity (abstract summary) ([1]; temperatures (<100 °C) and pH values (3.0–11.0)): stable
- Vmax of the enzyme reaction (ACE [2]; 60 μM peptide): 5 mM/min
- Vmax of the enzyme reaction (ACE [2]; 120 μM peptide): 2.78 mM/min
- Inhibitory kinetic mechanism (ACE [2]; Lineweaver–Burk plot): noncompetitive
- ACE-inhibitory activity after pH treatment [3]: maintained high ACE-inhibitory activity at all pH values

Molecule: YLTLFLLT [YLTLFLLT, Tyr-Leu-Thr-Leu-Phe-Leu-Leu-Thr]
- IC50 (ACE [4]): 214 µM
